Laboratory results from US12276654B2, “Chemical probe-dependent evaluation of protein activity and uses thereof” (The University of Chicago, priority 2017, dated 2025).
Read-outs that look alike come from different tables or passages of the source.

Tests used:
NCEH1 [1] = target: T1, NCEH1 (Homo sapiens, UniProt Q6PIU2); assay: ADPL imaging and quantification of endogenous NCEH1 activity in live cells (inhibitor profiling by ADPL); assay type: cell-based; design: endogenous NCEH1 activity in SKOV3 cells; endogenous in cells; host or cells: SKOV3; wild-type PC3; PAFAH2-expressing PC3; settings: for IC50: inhibitor 4 hr before FP-Bio (2 μM, 40 min), read-out: apparent IC50, inhibition of NCEH1 by ADPL
T1 sequence (Q6PIU2 1-408): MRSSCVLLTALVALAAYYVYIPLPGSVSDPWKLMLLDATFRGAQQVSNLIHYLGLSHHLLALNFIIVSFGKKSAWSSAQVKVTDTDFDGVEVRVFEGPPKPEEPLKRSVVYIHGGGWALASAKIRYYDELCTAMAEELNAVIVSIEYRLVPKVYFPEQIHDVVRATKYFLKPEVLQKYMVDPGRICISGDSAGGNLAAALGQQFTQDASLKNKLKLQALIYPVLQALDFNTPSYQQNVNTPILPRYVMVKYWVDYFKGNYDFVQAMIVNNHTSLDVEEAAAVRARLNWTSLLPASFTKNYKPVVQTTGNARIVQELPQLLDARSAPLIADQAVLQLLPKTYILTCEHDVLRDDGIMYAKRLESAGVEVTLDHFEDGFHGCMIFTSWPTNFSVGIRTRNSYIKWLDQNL
Method: Cells were seeded in the 12-well chamber slide, typically at 10,000-30,000 cells per well (Ibidi, #81201). To get an even distribution of the cells, the chamber slide was pre-wetted with cell culture medium, drained off, and the chamber was left at room temperature for 5-10 min after seeding. Cells at 80-90% confluency were pulse treated with either FP-Bio (2 μM) in DMEM and incubated at 37° C. for 40 min or Capthepsin probe (5 μM) in complete medium and incubated at 37° C. for 3 hr. Cells were washed with PBS, fixed with 4% paraformaldehyde in PBS at room temperature for 15 minutes, washed twice with PBS for 5 minutes each at room temperature with orbital shaking and then permeabilized in 0.5% Triton X-100 in PBS at room temperature for 15 minutes. Finally, cells were washed twice with 0.05% Tween-20 in PBS for 5 minutes each at room temperature with orbital shaking.
Prior to antibody incubation, the chamber was removed and the well boundaries delineated with the hydrophobic barrier pen (Vector laboratories, #H-4000). One-drop Duolink blocking buffer (Sigma, #DUO92004) was added and the slide was incubated at 37° C. for 30 minutes in a humidified chamber. The blocking solution was removed by tapping, followed by addition of 10 μg/ml of the anti-biotin (rabbit, Abcam, #G196266) and primary antibody for the protein of interest: anti-FLAG (mouse, 4 μg/ml of Sigma, #F1804-5 mg); anti-NCEH1 (mouse, 4 μg/ml of in-house polyclonal), anti-FAAH (mouse, 4 μg/ml of Abcam, #ab54615) for serine hydrolase members. […]
For quantitative analysis single cell boundaries were identified manually using the DIC image. Then the “ROI Manager” tool in Image) was utilized to add all the cell outlines as a collection and overlay with the ADPL channel to measure per-cell fluorescence intensity. Typical quantitative comparisons were made using data from three or more independent fields of view per independent biological replicate condition. […]

NCEH1 [2] = target: T1, NCEH1; assay: sADPL target engagement in patient-derived hPBMCs; assay type: cell-based; design: The human peripheral blood mononuclear cells (hPBMCs) were extracted from patient-derived blood samples; endogenous in cells; host or cells: primary human PBMCs from patient blood; settings: hPBMCs from patient-derived blood; inhibitor prior to family-wide probe
Method: FIG. 24. Target Engagement in Patient-derived PBMCs. The human peripheral blood mononuclear cells (hPBMCs) were extracted from patient-derived blood samples. Likewise, hPBMCs were treated with DMSO as the control, with inhibitor prior to family wide probe to pre-block the active site, or with family-wide probe directly. Then sADPL workflow was applied to read out the CT difference.

## CC(C)c1ccccc1OC(=O)NCCc1ccc2ccccc2c1 [JW480]
NCEH1 [1]; PAFAH2 expressing PC3 cells
  IC50: 8 nM
NCEH1 [1]; SKOV3 cells, 1 μM, 4 hr pre-treatment before FP-Bio
  NCEH1 activity by ADPL imaging and quantification relative to vehicle: significantly reduced
NCEH1 [1]; wild-type PC3 cells
  IC50: 6 nM
NCEH1 [2]
  activity in inhibitor competition group by sADPL in hPBMCs: bring the activities down to the levels of DMSO controls
